Measurements as given in PubChem BioAssay AID1919006 (Molecular Pharmacology Branch, DTP, NCI, 2023).

Tested on: 885512-296-R-J2-PDC complex spheroid growth, % test/control
Assay: Anticancer human tumor 885512-296-R-J2-PDC patient-derived breast carcinoma cell line growth inhibition [AhR]
Conditions: for IC50: curve of first compound; for viability, T/C: stronger effect = lower value
How it was run: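 Agents were dosed in half-log steps down from roughly clinical Cmax, or from 10 microM where Cmax was unknown, alone and with AhR antagonists. Read-out: percent test/control growth of tumor spheroids containing HUVEC and MSC stromal cells.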

[1] = second compound 0.1 µM, first compound 0.0316 µM
[2] = second compound 0.1 µM, first compound 0.1 µM
[3] = second compound 0.1 µM, first compound 0.316 µM
[4] = second compound 0.1 µM, first compound 1 µM
[5] = second compound 0.1 µM, first compound 3.16 µM
[6] = second compound 0.1 µM, first compound 10 µM
[7] = second compound 0.316 µM, first compound 0.0316 µM
[8] = second compound 0.316 µM, first compound 0.1 µM
[9] = second compound 0.316 µM, first compound 0.316 µM
[10] = second compound 0.316 µM, first compound 1 µM
[11] = second compound 0.316 µM, first compound 3.16 µM
[12] = second compound 0.316 µM, first compound 10 µM
[13] = second compound 1 µM, first compound 0.0316 µM
[14] = second compound 1 µM, first compound 0.1 µM
[15] = second compound 1 µM, first compound 0.316 µM
[16] = second compound 1 µM, first compound 1 µM
[17] = second compound 1 µM, first compound 3.16 µM
[18] = second compound 1 µM, first compound 10 µM
[19] = second compound 3.16 µM, first compound 0.0316 µM
[20] = second compound 3.16 µM, first compound 0.1 µM
[21] = second compound 3.16 µM, first compound 0.316 µM
[22] = second compound 3.16 µM, first compound 1 µM
[23] = second compound 3.16 µM, first compound 3.16 µM
[24] = second compound 3.16 µM, first compound 10 µM
[25] = second compound 10 µM, first compound 0.0316 µM
[26] = second compound 10 µM, first compound 0.1 µM
[27] = second compound 10 µM, first compound 0.316 µM
[28] = second compound 10 µM, first compound 1 µM
[29] = second compound 10 µM, first compound 3.16 µM
[30] = second compound 10 µM, first compound 10 µM
[31] = second compound 0.1 µM, first compound 0.00316 µM
[32] = second compound 0.1 µM, first compound 0.01 µM
[33] = second compound 0.316 µM, first compound 0.00316 µM
[34] = second compound 0.316 µM, first compound 0.01 µM
[35] = second compound 1 µM, first compound 0.00316 µM
[36] = second compound 1 µM, first compound 0.01 µM
[37] = second compound 3.16 µM, first compound 0.00316 µM
[38] = second compound 3.16 µM, first compound 0.01 µM
[39] = second compound 10 µM, first compound 0.00316 µM
[40] = second compound 10 µM, first compound 0.01 µM
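Note: spheroids exposed to compounds for seven days.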

Row | SMILES | IC50 (second compound 0.1 µM) [nM] | IC50 (second compound 0.316 µM) [nM] | IC50 (second compound 1 µM) [nM] | IC50 (second compound 3.16 µM) [nM] | IC50 (second compound 10 µM) [nM] | viability, T/C [1] [%] | viability, T/C [2] [%] | viability, T/C [3] [%] | viability, T/C [4] [%] | viability, T/C [7] [%] | viability, T/C [8] [%] | viability, T/C [9] [%] | viability, T/C [10] [%] | viability, T/C [13] [%] | viability, T/C [14] [%] | viability, T/C [15] [%] | viability, T/C [19] [%] | viability, T/C [20] [%] | viability, T/C [25] [%] | viability, T/C [26] [%] | further results
1 | O=C(C=Cc1cccc(S(=O)(=O)Nc2ccccc2)c1)NO + Cc1ccccc1N=Nc1ccc(NC(=O)c2ccnn2C)c(C)c1 | 871 | 1160 | 1090 | 773 | 33.8 | 84.5 | 82.9 | 67.6 | 45 | 86.4 | 85.8 | 80.8 | 47.8 | 88.2 | 85.5 | 68.9 | 73.8 | 73 | 51 | 46.8 | viability, T/C [5]: 27.8%; viability, T/C [6]: 7.04%; viability, T/C [11]: 30.6%; viability, T/C [12]: 7.44%; viability, T/C [16]: 51.4%; viability, T/C [17]: 29.8%; viability, T/C [18]: 7.53%; viability, T/C [21]: 67.5%; viability, T/C [22]: 40.6%; viability, T/C [23]: 28.2%; viability, T/C [24]: 6.85%; viability, T/C [27]: 41.9%; viability, T/C [28]: 32.5%; viability, T/C [29]: 27.6%; viability, T/C [30]: 7.31%
2 | Nc1ncn(C2CC(O)C(CO)O2)c(=O)n1 (stereo not given) + Cc1ccccc1N=Nc1ccc(NC(=O)c2ccnn2C)c(C)c1 | 949 | 816 | 840 | 930 | > 1000 | 112 | 106 | 74.2 | 48.9 | 122 | 111 | 78.3 | 43.9 | 122 | 106 | 80 | 112 | 95.5 | 62.8 | 67 | viability, T/C [31]: 114%; viability, T/C [32]: 128%; viability, T/C [33]: 109%; viability, T/C [34]: 114%; viability, T/C [35]: 111%; viability, T/C [36]: 108%; viability, T/C [16]: 44.7%; viability, T/C [37]: 88.8%; viability, T/C [38]: 79.2%; viability, T/C [21]: 77.3%; viability, T/C [22]: 48.1%; viability, T/C [39]: 50.6%; viability, T/C [40]: 58.4%; viability, T/C [27]: 60.1%; viability, T/C [28]: 48.3%
3 | COc1cc(Nc2ncc3c(n2)-c2ccc(Cl)cc2C(c2c(F)cccc2OC)=NC3)ccc1C(=O)O + Cc1ccccc1N=Nc1ccc(NC(=O)c2ccnn2C)c(C)c1 | 4100 | > 10000 | 5480 | 1980 | < 31.6 | 61.3 | 51.4 | 59.2 | 59.2 | 62.9 | 48.8 | 57.8 | 50.6 | 56.8 | 54.8 | 65.9 | 51.4 | 46.6 | 45.6 | 40.9 | viability, T/C [5]: 52.2%; viability, T/C [6]: 38.9%; viability, T/C [11]: 53.5%; viability, T/C [12]: 47.6%; viability, T/C [16]: 58.1%; viability, T/C [17]: 46.2%; viability, T/C [18]: 49%; viability, T/C [21]: 55%; viability, T/C [22]: 54.4%; viability, T/C [23]: 47.1%; viability, T/C [24]: 43.3%; viability, T/C [27]: 40.6%; viability, T/C [28]: 39.6%; viability, T/C [29]: 36.5%; viability, T/C [30]: 37.7%
4 | Cn1ncnc1C1c2n[nH]c(=O)c3cc(F)cc(c23)NC1c1ccc(F)cc1 (stereo not given) + Cc1cncc(-c2nc(NCCc3c[nH]c4ccccc34)c3ncn(C(C)C)c3n2)c1 | > 100 | > 100 | > 100 | 35.2 | < 0.316 | 82.4 | 56.2 | – | – | 76 | 53.5 | – | – | 68.3 | 51.8 | – | 49.2 | 45.7 | 22.1 | 21.6 | viability, T/C (second compound 0.1 µM, first compound 0.000316 µM): 116%; viability, T/C (second compound 0.1 µM, first compound 0.001 µM): 112%; viability, T/C [31]: 99.8%; viability, T/C [32]: 99.1%; viability, T/C (second compound 0.316 µM, first compound 0.000316 µM): 120%; viability, T/C (second compound 0.316 µM, first compound 0.001 µM): 108%; viability, T/C [33]: 105%; viability, T/C [34]: 87.4%; viability, T/C (second compound 1 µM, first compound 0.000316 µM): 87.1%; viability, T/C (second compound 1 µM, first compound 0.001 µM): 99.5%; viability, T/C [35]: 79.4%; viability, T/C [36]: 74.9%; viability, T/C (second compound 3.16 µM, first compound 0.000316 µM): 55.2%; viability, T/C (second compound 3.16 µM, first compound 0.001 µM): 58.4%; viability, T/C [37]: 54.6%; viability, T/C [38]: 54.5%; viability, T/C (second compound 10 µM, first compound 0.000316 µM): 23.8%; viability, T/C (second compound 10 µM, first compound 0.001 µM): 21.6%; viability, T/C [39]: 21.3%; viability, T/C [40]: 18.1%
